Data published in US6479487B1, “6, 9-disubstituted 2-[trans-(4-aminocyclohexyl)amino] purines” (Aventis Pharmaceuticals Inc., priority 1998, dated 2002).
Read-outs that look alike come from different tables or passages of the source.

Experiments:
[1] = tested on: MCF-7; experiment: In vitro tumor cell proliferation, MCF-7; type: cell-based, human; conditions: Homo sapiens, MCF7, MCF-7; sulforhodamine B or CyQUANT assay; read-out: In vitro Tumor Cell Proliferation (IC50, μM) Breast MCF-7
Procedure: (§1) The proliferation of tumor cells was measured using a sulforhodamine B assay as described in Skehan, P., et al., J. Natl. Cancer Inst. […] Tumor cells were harvested with trypsin-EDTA, cells that excluded trypan blue were counted, added to 96-well plates and incubated overnight at 37° C. Drug was added to the wells following dilution in culture medium. Three days later, the medium was removed and replenished with medium containing fresh drug and incubated an additional 4 days. The cells were then fixed with 0.1 ml 10% trichloroacetic acid for 60 min at 4° C. The plates were rinsed five times with tap water, air-dried and stained for 30 min with 0.4% sulforhodamine B in 1% acetic acid and air-dried.
(§2) Alternatively, the CyQUANT cell proliferation assay was used to quantitate cell proliferation.
(§3) Alternatively, the CyQUANT cell proliferation assay was used to quantify tumor cell proliferation. Tumor cells were harvested with trypsin-EDTA, cells that excluded trypan blue were counted, added to 96-well plates and incubated overnight at 37° C. Drug was added to the wells following dilution in culture medium. Three days later the medium was removed and the plates frozen at −80° C. for at least 30 minutes.
MCF7 is a human breast adenocarcinoma, hormone-dependent (HTB 22);

[2] = tested on: HT-29; experiment: In vitro tumor cell proliferation, HT-29; type: cell-based, human; conditions: many values given with an undefined *, read-out: In vitro Tumor Cell Proliferation (IC50, μM) Colon HT-29
Method in brief: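 Growth was quantified either with CyQUANT, plates frozen at −80° C after 3 days of drug, or by sulforhodamine B staining of TCA-fixed cells after 3 days of drug plus 4 days with fresh drug. Trypan blue-excluding HT-29 cells were plated overnight at 37° C before dosing.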

[3] = tested on: HCT-15; experiment: In vitro tumor cell proliferation, HCT-15; type: cell-based, human; conditions: read-out: In vitro Tumor Cell Proliferation (IC50, μM) Colon HCT-15
Procedure: as §1, §2, §3

[4] = tested on: A549; experiment: In vitro tumor cell proliferation, A549; type: cell-based, human; conditions: Homo sapiens; A549; many values given with an undefined *; read-out: In vitro Tumor Cell Proliferation (IC50, μM) Lung A549
Method in brief: (§4)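 Cells seeded overnight at 37° C, then exposed to drug diluted in medium; at 3 days medium and drug replenished for another 4 days. Growth read by sulforhodamine B staining after TCA fixation; alternatively by CyQUANT, with plates frozen at −80° C after 3 days of drug.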

[5] = tested on: DMS-114; experiment: In vitro tumor cell proliferation, DMS-114; type: cell-based, human; conditions: many values given with an undefined *, read-out: In vitro Tumor Cell Proliferation (IC50, μM) Lung DMS-114
Method in brief: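 Human small cell lung carcinoma DMS-114 cells plated overnight, then drug-treated for 3 days, medium and drug renewed, and incubated 4 more days. Growth read by sulforhodamine B staining after TCA fixation; alternatively by CyQUANT after 3 days' drug exposure and freezing at −80 °C.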

[6] = tested on: PC-3; experiment: In vitro tumor cell proliferation, PC-3; type: cell-based, human; conditions: Homo sapiens; PC-3; many values given with an undefined *; read-out: In vitro Tumor Cell Proliferation (IC50, μM) Prostate PC-3
Method in brief: as §4

[7] = tested on: DU145; experiment: In vitro tumor cell proliferation, DU145; type: cell-based, human; conditions: Homo sapiens, DU-145, DU145; many values given with an undefined *; read-out: In vitro Tumor Cell Proliferation (IC50, μM) Prostate DU145
Method in brief: as §4

[8] = tested on: CDK-cyclin protein kinases; conditions: Vesely et al. 1994; cited from earlier work
[9] = tested on: cAMP- and cGMP-dependent kinases, and protein kinase C; conditions: cited from earlier work
[10] = tested on: neuronal PC12 cells and sympathetic neurons; conditions: two model systems of neuronal survival; Park et al. 1996; cited from earlier work
[11] = tested on: PC12 cells, or rat sympathetic neurons; conditions: cited from earlier work; for concentration giving maximal protection from death: camptothecin-treated, minimum concentrations that fully inhibit DNA synthesis by proliferating PC12 cells; for cell death: day 6, in the presence or absence of camptothecin
[12] = tested on: cortical neurons; conditions: cited from earlier work; for IC50: Park et al. 1997, read-out: IC50, protection against camptothecin-induced cortical neuronal death

| SMILES | IC50 [1] [µM] | IC50 ([2]; HT-29) [µM] | IC50 ([2]; Homo sapiens, HT-29, HT-29) [µM] | IC50 ([3]; HCT-15) [µM] | IC50 ([3]; Homo sapiens, HCT-15, HCT-15) [µM] | IC50 [4] [µM] | IC50 ([5]; DMS-114) [µM] | IC50 ([5]; Homo sapiens, DMS-114, DMS-114) [µM] | IC50 [6] [µM] | IC50 [7] [µM] | IC50 [8] [µM] | effect on other major protein kinases [9] | effect on death of neuronal PC12 cells and sympathetic neurons [10] | concentration giving maximal protection from death [11] [µM] | cell death [11] | IC50 [12] [µM] | prevention of cell death of camptothecin-treated neuronal cells ([11]; PC12 cells / sympathetic neurons) | prevention of cell death of camptothecin-treated neuronal cells ([12]; cortical neurons) |
| --- | --- | --- | --- | --- | --- | --- | --- | --- | --- | --- | --- | --- | --- | --- | --- | --- | --- | --- |
| Cn1cnc2c(NCc3ccccc3)nc(NCCO)nc21 [Olomoucine, 6-(benzylamino)-2-[(2-hydroxyethyl)amino]-9-methylpurine, reference compound] | 35 | 58 | 53 | 63 | 62 | 69 | 76 | 50 | 55 | > 100 | ~7 | no effect | suppress the death | 200 | approximately 30% | 100 | – | – |
| Cn1cnc2nc(NCCO)nc(NCc3ccccc3)c21 [iso-olomoucine] | – | – | – | – | – | – | – | – | – | – | – | – | – | – | – | – | failed to prevent the cell death | failed to prevent the cell death |
| CN1CC[C@H](c2c(O)cc(O)c3c(=O)cc(-c4ccccc4Cl)oc23)[C@H](O)C1 [Flavopiridol] | – | – | – | – | – | – | – | – | – | – | – | – | suppress the death | 1 | approximately 30% | 0.1 | – | – |
